Laboratory results taken from US7598245B2 (Vertex Pharmaceuticals Incorporated, priority 2003, dated 2009).

Tests used:
Type in all cases: biochemical
[1] = biological target: T1, JAK-3 (Homo sapiens, UniProt P52333); experiment: JAK3 inhibition assay (ELISA, Poly (Glu, Ala, Tyr) coated plates); details: 2 μM ATP
T1 sequence (P52333 1-1124): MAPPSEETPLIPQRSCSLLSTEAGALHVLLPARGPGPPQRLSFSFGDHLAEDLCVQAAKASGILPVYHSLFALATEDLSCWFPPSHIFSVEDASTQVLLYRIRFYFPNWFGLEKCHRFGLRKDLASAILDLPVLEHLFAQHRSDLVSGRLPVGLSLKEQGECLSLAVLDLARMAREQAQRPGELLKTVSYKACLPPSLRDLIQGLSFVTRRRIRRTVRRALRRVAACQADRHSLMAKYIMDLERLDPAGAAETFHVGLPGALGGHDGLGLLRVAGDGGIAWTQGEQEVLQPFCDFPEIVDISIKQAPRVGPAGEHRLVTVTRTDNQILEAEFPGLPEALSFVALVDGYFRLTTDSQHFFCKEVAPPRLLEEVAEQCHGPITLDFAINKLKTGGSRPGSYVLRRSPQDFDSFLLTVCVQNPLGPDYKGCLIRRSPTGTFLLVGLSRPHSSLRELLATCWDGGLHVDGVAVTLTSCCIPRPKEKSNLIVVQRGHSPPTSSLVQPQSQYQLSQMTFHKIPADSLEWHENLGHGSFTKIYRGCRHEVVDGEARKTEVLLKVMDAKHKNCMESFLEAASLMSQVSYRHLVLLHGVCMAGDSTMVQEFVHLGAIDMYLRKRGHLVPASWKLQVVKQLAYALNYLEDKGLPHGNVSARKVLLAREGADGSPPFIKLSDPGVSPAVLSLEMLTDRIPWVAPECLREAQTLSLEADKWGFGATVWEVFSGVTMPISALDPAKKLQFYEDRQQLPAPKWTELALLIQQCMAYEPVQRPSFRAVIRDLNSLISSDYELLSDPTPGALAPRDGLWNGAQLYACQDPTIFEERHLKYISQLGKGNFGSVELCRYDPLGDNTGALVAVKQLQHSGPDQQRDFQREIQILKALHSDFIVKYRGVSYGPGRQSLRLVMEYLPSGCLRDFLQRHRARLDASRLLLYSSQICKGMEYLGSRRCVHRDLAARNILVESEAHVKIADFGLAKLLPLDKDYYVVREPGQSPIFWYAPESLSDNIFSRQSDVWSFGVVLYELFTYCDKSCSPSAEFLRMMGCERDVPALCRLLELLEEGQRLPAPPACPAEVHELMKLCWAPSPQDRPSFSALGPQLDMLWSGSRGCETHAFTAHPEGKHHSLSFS
Summary of the method: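 ELISA on plates coated with poly(Glu,Ala,Tyr) 6:3:1, with 2 μM ATP, 5 mM MgCl2 and compound. Enzyme-started reaction ran 60 min at 30 °C. Phosphotyrosine detected with HRP-4G10 and TMB at 450 nm; Ki values derived.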

[2] = biological target: KDR (Homo sapiens, UniProt P35968); experiment: Inhibition of KDR, coupled enzyme assay; details: 300 μM ATP, 37° C.
Experimental: Compounds were screened for their ability to inhibit KDR using a standard coupled enzyme assay (Fox et al., Protein Sci., (1998) 7, 2249). Assays were carried out in a mixture of 200 mM HEPES 7.5, 10 mM MgCl2, 25 mM NaCl, 1 mM DTT and 1.5% DMSO. Final substrate concentrations in the assay were 300 μM ATP (Sigma Chemicals) and 10 μM poly E4Y (Sigma). Assays were carried out at 37° C. and 30 nM KDR. Final concentrations of the components of the coupled enzyme system were 2.5 mM phosphoenolpyruvate, 200 μM NADH, 30 μg/ML pyruvate kinase and 10 μg/ml lactate dehydrogenase.
An assay stock buffer solution was prepared containing all of the reagents listed above, with the exception of ATP and the test compound of interest. 177 μl of the stock solution was placed in a 96 well plate followed by addition of 3 μl of 2 mM DMSO stock containing the test compound (final compound concentration 30 μM). The plate was preincubated for about 10 minutes at 37° C. and the reaction initiated by addition of 20 μl of ATP (final concentration 300 μM). Rates of reaction were obtained using a Molecular Devices plate reader (Sunnyvale, Calif.) over a 5 minute read time at 37° C.

[3] = biological target: T2, CDK-2/Cyclin A (Homo sapiens, UniProt P24941); experiment: Inhibition of CDK-2, coupled enzyme assay; details: 100 μM ATP, 30° C.
T2 construct: 25 nM CDK-2/Cyclin A
Experimental: Compounds are screened for their ability to inhibit CDK-2/Cyclin A using a standard coupled enzyme assay [Fox et al. Protein Sci. 1998, 7, 2249]. Reactions were carried out in 100 mM HEPES (pH 7.5), 10 mM MgCl2, 25 mM NaCl, 1 mM DTT and 1.5% DMSO. Final substrate concentrations in the assay are 100 μM ATP (Sigma chemicals) and 100 μM peptide (American Peptide, Sunnyvale, Calif.). Assays are carried out at 30° C. and 25 nM CDK-2/Cyclin A. Final concentrations of the components of the coupled enzyme system are 2.5 mM phosphoenolpyruvate, 350 μM NADH, 30 μg/ml pyruvate kinase and 10 μg/ml lactate dehydrogenase.
An assay stock buffer solution is prepared containing all of the reagents listed above, with the exception of CDK-2/Cyclin A, DTT and the test compound of interest. 56 μl of the test reaction is placed in a 384 well plate followed by addition of 1 μl of 2 mM DMSO stock containing the test compound (final compound concentration 30 μM). The plate is preincubated for ˜10 minutes at 30° C. and the reaction initiated by addition of 10 μl of enzyme (final concentration 25 nM). Rates of reaction are obtained using a BioRad Ultramark plate reader (Hercules, Calif.) over a 5 minute read time at 30° C. Ki values are determined according to standard methods.

Chain of KDR (P35968 20-1356): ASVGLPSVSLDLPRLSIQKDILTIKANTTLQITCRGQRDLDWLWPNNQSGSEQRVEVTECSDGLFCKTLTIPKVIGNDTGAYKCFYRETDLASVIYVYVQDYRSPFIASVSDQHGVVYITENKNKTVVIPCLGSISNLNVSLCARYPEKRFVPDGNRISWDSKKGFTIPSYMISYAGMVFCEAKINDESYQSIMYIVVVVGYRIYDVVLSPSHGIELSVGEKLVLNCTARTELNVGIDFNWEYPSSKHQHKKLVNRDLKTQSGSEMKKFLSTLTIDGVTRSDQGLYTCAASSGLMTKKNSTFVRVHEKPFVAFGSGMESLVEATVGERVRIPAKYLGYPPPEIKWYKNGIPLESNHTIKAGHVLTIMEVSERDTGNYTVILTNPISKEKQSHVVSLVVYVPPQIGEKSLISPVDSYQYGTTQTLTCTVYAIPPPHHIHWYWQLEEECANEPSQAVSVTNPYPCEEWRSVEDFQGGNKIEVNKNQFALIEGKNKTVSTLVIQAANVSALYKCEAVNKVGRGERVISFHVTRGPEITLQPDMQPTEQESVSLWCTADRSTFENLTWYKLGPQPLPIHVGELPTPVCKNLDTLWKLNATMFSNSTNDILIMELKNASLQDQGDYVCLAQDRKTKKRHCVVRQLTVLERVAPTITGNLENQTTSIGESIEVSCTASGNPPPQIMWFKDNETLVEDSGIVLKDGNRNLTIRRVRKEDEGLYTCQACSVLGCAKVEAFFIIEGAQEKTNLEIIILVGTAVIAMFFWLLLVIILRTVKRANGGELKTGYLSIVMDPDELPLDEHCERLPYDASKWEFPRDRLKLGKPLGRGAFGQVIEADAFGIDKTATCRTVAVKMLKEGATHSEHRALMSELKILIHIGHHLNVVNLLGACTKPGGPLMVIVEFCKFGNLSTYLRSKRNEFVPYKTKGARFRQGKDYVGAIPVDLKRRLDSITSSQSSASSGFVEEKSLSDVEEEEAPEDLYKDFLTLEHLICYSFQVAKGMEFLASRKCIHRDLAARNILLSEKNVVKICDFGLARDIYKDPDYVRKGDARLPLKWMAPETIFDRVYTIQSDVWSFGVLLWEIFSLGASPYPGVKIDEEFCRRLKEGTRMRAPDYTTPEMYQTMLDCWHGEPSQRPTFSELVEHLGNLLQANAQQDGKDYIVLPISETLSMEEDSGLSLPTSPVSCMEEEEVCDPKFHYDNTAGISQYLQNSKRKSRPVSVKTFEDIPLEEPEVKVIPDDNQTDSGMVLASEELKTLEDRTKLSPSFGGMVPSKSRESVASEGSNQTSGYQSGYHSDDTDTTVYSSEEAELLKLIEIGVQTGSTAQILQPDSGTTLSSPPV

c1ccc(-n2cnc(Nc3ccc(N4CCOCC4)nc3)n2)cc1 [Compound I-134]
Ki [1]: > 1 µM | Ki [2]: 0.1 to 1 µM | Ki [3]: > 1 µM
